# Read-outs that look alike come from different tables or passages of the source.
# Legend:
# Experiment in all cases: Glasshouse assay for herbicidal activity (pre- and post-emergence), percentage phytotoxicity
# Format in all cases: in vivo
# [1] = test system: Alopecurus myosuroides (ALOMY); settings: Alopecurus myosuroides
# Outline: (§1)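 Pot-grown plants treated one day after sowing (pre-emergence) or at about 12 days (post-emergence); glasshouse at 24/18° C (warm) or 20/16° C (cool species) day/night, 16 h light, 65% humidity. Visual % phytotoxicity (0 = none, 100 = total damage) scored at 15 DAA post or 20 DAA pre.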
# [2] = test system: Echinochloa crus-galli (ECHCG); settings: Echinochloa crus-galli
# Outline: as §1
# [3] = test system: Avena fatua (AVEFA); settings: Avena fatua
# Outline: as §1
# [4] = test system: Lolium perenne (LOLPE); settings: Lolium perenne
# Outline: as §1
# [5] = post-emergence, 360 h, 250 g/ha, post-emergence, 15 DAA, visual assessment (100%=total damage, 0%=no damage), read-out: Post-emergence herbicidal activity (percentage phytotoxicity) ALOMY POST
# [6] = pre-emergence, 480 h, 250 g/ha, pre-emergence, 20 DAA, visual assessment (100%=total damage, 0%=no damage), read-out: Pre-emergence herbicidal activity (percentage phytotoxicity) ALOMY PRE
# [7] = post-emergence, 360 h, 250 g/ha, post-emergence, 15 DAA, visual assessment (100%=total damage, 0%=no damage), read-out: Post-emergence herbicidal activity (percentage phytotoxicity) ECHCG POST
# [8] = pre-emergence, 480 h, 250 g/ha, pre-emergence, 20 DAA, visual assessment (100%=total damage, 0%=no damage), read-out: Pre-emergence herbicidal activity (percentage phytotoxicity) ECHCG PRE
# [9] = post-emergence, 360 h, 250 g/ha, post-emergence, 15 DAA, visual assessment (100%=total damage, 0%=no damage), read-out: Post-emergence herbicidal activity (percentage phytotoxicity) AVEFA POST
# [10] = pre-emergence, 480 h, 250 g/ha, pre-emergence, 20 DAA, visual assessment (100%=total damage, 0%=no damage), read-out: Pre-emergence herbicidal activity (percentage phytotoxicity) AVEFA PRE
# [11] = post-emergence, 360 h, 250 g/ha, post-emergence, 15 DAA, visual assessment (100%=total damage, 0%=no damage), read-out: Post-emergence herbicidal activity (percentage phytotoxicity) LOLPE POST
# [12] = pre-emergence, 480 h, 250 g/ha, pre-emergence, 20 DAA, visual assessment (100%=total damage, 0%=no damage), read-out: Pre-emergence herbicidal activity (percentage phytotoxicity) LOLPE PRE
# [13] = post-emergence, 360 h, POST-emergence, rate 250 g/ha, visual score 15 DAA (100%=total damage, 0%=no damage), read-out: Post-emergence herbicidal activity (percentage phytotoxicity) ALOMY POST
# [14] = pre-emergence, 480 h, PRE-emergence, rate 250 g/ha, visual score 20 DAA (100%=total damage, 0%=no damage), read-out: Pre-emergence herbicidal activity (percentage phytotoxicity) ALOMY PRE
# [15] = post-emergence, 360 h, POST-emergence, rate 250 g/ha, visual score 15 DAA (100%=total damage, 0%=no damage), read-out: Post-emergence herbicidal activity (percentage phytotoxicity) ECHCG POST
# [16] = pre-emergence, 480 h, PRE-emergence, rate 250 g/ha, visual score 20 DAA (100%=total damage, 0%=no damage), read-out: Pre-emergence herbicidal activity (percentage phytotoxicity) ECHCG PRE
# [17] = post-emergence, 360 h, POST-emergence, rate 250 g/ha, visual score 15 DAA (100%=total damage, 0%=no damage), read-out: Post-emergence herbicidal activity (percentage phytotoxicity) AVEFA POST
# [18] = pre-emergence, 480 h, PRE-emergence, rate 250 g/ha, visual score 20 DAA (100%=total damage, 0%=no damage), read-out: Pre-emergence herbicidal activity (percentage phytotoxicity) AVEFA PRE
# [19] = post-emergence, 360 h, POST-emergence, rate 250 g/ha, visual score 15 DAA (100%=total damage, 0%=no damage), read-out: Post-emergence herbicidal activity (percentage phytotoxicity) LOLPE POST
# [20] = pre-emergence, 480 h, PRE-emergence, rate 250 g/ha, visual score 20 DAA (100%=total damage, 0%=no damage), read-out: Pre-emergence herbicidal activity (percentage phytotoxicity) LOLPE PRE
SMILES,"pest or weed control at 250 g/ha [1, 5] [%]","pest or weed control at 250 g/ha [1, 6] [%]","pest or weed control at 250 g/ha [2, 7] [%]","pest or weed control at 250 g/ha [2, 8] [%]","pest or weed control at 250 g/ha [3, 9] [%]","pest or weed control at 250 g/ha [3, 10] [%]","pest or weed control at 250 g/ha [4, 11] [%]","pest or weed control at 250 g/ha [4, 12] [%]","pest or weed control at 250 g/ha [1, 13] [%]","pest or weed control at 250 g/ha [1, 14] [%]","pest or weed control at 250 g/ha [2, 15] [%]","pest or weed control at 250 g/ha [2, 16] [%]","pest or weed control at 250 g/ha [3, 17] [%]","pest or weed control at 250 g/ha [3, 18] [%]","pest or weed control at 250 g/ha [4, 19] [%]","pest or weed control at 250 g/ha [4, 20] [%]",other results
Cc1cc(C)c(C2C(=O)CC(CC(=O)NCc3cccc(Br)c3)C2=O)c(C)c1 (stereo not drawn) [Compound B23],60,70,90,90,70,60,90,100,,,,,,,,,
CCNC(=O)CC1CC(=O)C(c2c(C)cc(-c3ccc(Br)cn3)cc2C)C1=O (stereo not drawn) [Compound B323],,,,,,,,,100,100,100,100,100,90,100,100,
CC#Cc1cc(C)c(C2C(=O)CC(CC(=O)NC3CCCC3)C2=O)c(C)c1 (stereo not drawn) [Compound A62],,,,,,,,,,,,,,,,,"pest or weed control at 250 g/ha ([1]; post-emergence, 360 h, Rate 250 g/ha, post-emergence, assessed visually 15 DAA, 100%=total damage, 0%=no damage, read-out: Post-emergence herbicidal activity (percentage phytotoxicity) ALOMY POST): 90%; pest or weed control at 250 g/ha ([1]; pre-emergence, 480 h, Rate 250 g/ha, pre-emergence, assessed visually 20 DAA, 100%=total damage, 0%=no damage, read-out: Pre-emergence herbicidal activity (percentage phytotoxicity) ALOMY PRE): 100%; pest or weed control at 250 g/ha ([2]; post-emergence, 360 h, Rate 250 g/ha, post-emergence, assessed visually 15 DAA, 100%=total damage, 0%=no damage, read-out: Post-emergence herbicidal activity (percentage phytotoxicity) ECHCG POST): 100%; pest or weed control at 250 g/ha ([2]; pre-emergence, 480 h, Rate 250 g/ha, pre-emergence, assessed visually 20 DAA, 100%=total damage, 0%=no damage, read-out: Pre-emergence herbicidal activity (percentage phytotoxicity) ECHCG PRE): 100%; pest or weed control at 250 g/ha ([3]; post-emergence, 360 h, Rate 250 g/ha, post-emergence, assessed visually 15 DAA, 100%=total damage, 0%=no damage, read-out: Post-emergence herbicidal activity (percentage phytotoxicity) AVEFA POST): 90%; pest or weed control at 250 g/ha ([3]; pre-emergence, 480 h, Rate 250 g/ha, pre-emergence, assessed visually 20 DAA, 100%=total damage, 0%=no damage, read-out: Pre-emergence herbicidal activity (percentage phytotoxicity) AVEFA PRE): 90%; pest or weed control at 250 g/ha ([4]; post-emergence, 360 h, Rate 250 g/ha, post-emergence, assessed visually 15 DAA, 100%=total damage, 0%=no damage, read-out: Post-emergence herbicidal activity (percentage phytotoxicity) LOLPE POST): 60%; pest or weed control at 250 g/ha ([4]; pre-emergence, 480 h, Rate 250 g/ha, pre-emergence, assessed visually 20 DAA, 100%=total damage, 0%=no damage, read-out: Pre-emergence herbicidal activity (percentage phytotoxicity) LOLPE PRE): 100%"
Cc1cc(C)c(C2C(=O)CC(CC(=O)NCc3ccc(C#N)cc3)C2=O)c(C)c1 (stereo not drawn) [Compound B69],40,50,80,90,100,80,80,90,,,,,,,,,
Cc1cc(-c2ncc(F)cn2)cc(C)c1C1C(=O)CC(CC(=O)NC(C)(C)C)C1=O (stereo not drawn) [Compound B5],100,100,100,100,100,90,90,100,,,,,,,,,
Cc1cc(-c2ncc(F)cc2F)cc(C)c1C1C(=O)CC(CC(=O)NCc2cccc(Br)c2)C1=O (stereo not drawn) [Compound B90],100,90,100,100,100,70,100,100,,,,,,,,,
C/C=C/c1cc(C)c(C2C(=O)CC(CC(=O)NCc3ccc(C#N)cc3)C2=O)c(C)c1 (stereo not drawn) [Compound B244],,,,,,,,,0,0,90,0,80,0,60,0,
C/C=C/CNC(=O)CC1CC(=O)C(c2c(C)cc(-c3ncc(F)cn3)cc2C)C1=O (stereo not drawn) [Compound B303],,,,,,,,,100,90,100,100,100,80,100,80,
Cc1cc(OCC(F)(F)F)cc(C)c1C1C(=O)CC(CC(=O)NCC2CC2)C1=O (stereo not drawn) [Compound B210],,,,,,,,,100,100,100,100,90,80,90,100,
Cc1cc(C)c(C2C(=O)CC(CC(=O)NC3(C(F)(F)F)CC3)C2=O)c(C)c1 (stereo not drawn) [Compound B138],90,80,80,90,70,0,80,70,,,,,,,,,
C#CCNC(=O)CC1CC(=O)C(c2c(C)cc(-c3ccc(F)cn3)cc2C)C1=O (stereo not drawn) [Compound B387],,,,,,,,,,,,,,,,,"pest or weed control at 250 g/ha ([1]; post-emergence, 360 h, Rate 250 g/ha, post-emergence, visual assessment 15 DAA, 100%=total damage, 0%=no damage, read-out: Post-emergence herbicidal activity (percentage phytotoxicity) ALOMY POST): 90%; pest or weed control at 250 g/ha ([1]; pre-emergence, 480 h, Rate 250 g/ha, pre-emergence, visual assessment 20 DAA, 100%=total damage, 0%=no damage, read-out: Pre-emergence herbicidal activity (percentage phytotoxicity) ALOMY PRE): 90%; pest or weed control at 250 g/ha ([2]; post-emergence, 360 h, Rate 250 g/ha, post-emergence, visual assessment 15 DAA, 100%=total damage, 0%=no damage, read-out: Post-emergence herbicidal activity (percentage phytotoxicity) ECHCG POST): 90%; pest or weed control at 250 g/ha ([2]; pre-emergence, 480 h, Rate 250 g/ha, pre-emergence, visual assessment 20 DAA, 100%=total damage, 0%=no damage, read-out: Pre-emergence herbicidal activity (percentage phytotoxicity) ECHCG PRE): 100%; pest or weed control at 250 g/ha ([3]; post-emergence, 360 h, Rate 250 g/ha, post-emergence, visual assessment 15 DAA, 100%=total damage, 0%=no damage, read-out: Post-emergence herbicidal activity (percentage phytotoxicity) AVEFA POST): 100%; pest or weed control at 250 g/ha ([3]; pre-emergence, 480 h, Rate 250 g/ha, pre-emergence, visual assessment 20 DAA, 100%=total damage, 0%=no damage, read-out: Pre-emergence herbicidal activity (percentage phytotoxicity) AVEFA PRE): 100%; pest or weed control at 250 g/ha ([4]; post-emergence, 360 h, Rate 250 g/ha, post-emergence, visual assessment 15 DAA, 100%=total damage, 0%=no damage, read-out: Post-emergence herbicidal activity (percentage phytotoxicity) LOLPE POST): 90%; pest or weed control at 250 g/ha ([4]; pre-emergence, 480 h, Rate 250 g/ha, pre-emergence, visual assessment 20 DAA, 100%=total damage, 0%=no damage, read-out: Pre-emergence herbicidal activity (percentage phytotoxicity) LOLPE PRE): 90%"
C=CC(C)NC(=O)CC1CC(=O)C(c2c(C)cc(-c3ncc(Cl)cc3F)cc2C)C1=O (stereo not drawn) [Compound B300],,,,,,,,,100,100,100,100,100,100,100,100,
